# Laboratory results published in US5902789A, “Nasal administration of drugs” (Fisons Corporation, priority 1995, dated 1999).
# Assays:
# [1] = cited from earlier work
# [2] = Example II irritation studies of nasal spray solutions without insulin (10 days); assay type: in vivo, human; conditions: longer than 5 days, polysorbate-80 added to nasal spray solution
# Experimental: Chronic irritation studies, i.e., longer than 5 days, using polysorbate-80 according to the present invention have also been carried out.
# Studies were carried out to determine the effect on nasal irritation of the addition of varying amounts of polysorbate-80 to nasal spray solutions containing N-9. […] In each study ten normal subjects were treated with one squirt (about 0.15 ml) of the nasal spray solution three times a day for ten consecutive days. After administration, the subjects were questioned about any symptoms and findings recorded. The nasal passages were examined on the fifth and tenth days of treatment by an ENT ([…], nose and throat) specialist and findings recorded.
# The nasal spray solutions used in the study comprised 1% of a mixture of polysorbate-80:N-9, 1:9, wt:wt; 0.5% of a mixture of polysorbate-80:N-9, 1:9, wt:wt; 0.25% of a mixture of polysorbate-80:N-9, 1:9, wt:wt; 1% of a mixture of polysorbate-80:N-9, 1:3, wt:wt; 0.5% of a mixture of polysorbate-80:N-9, 1:3, wt:wt; 0.25% of a mixture of polysorbate-80:N-9, 1:3, wt:wt; 0.1% N-9 or a saline placebo. All of the nasal spray solutions produced minor changes in nasal mucosa and minor symptomatic complaints but the number encountered with 0.5% P-80:N-9, 1:9, and 0.5% P-80:N-9:1:3 (4 out of 10 subjects in each group) most closely paralleled the saline placebo (7 out of 20 subjects).
Substance,"promotion of insulin absorption ([1]; 0.1% laureth-9, nasally)",absorption of nasally administered insulin ([1]; humans),"tolerability of nasal administration ([1]; laureth-9 at 0.1% by weight, nasally)","nasal irritation accompanying administration ([1]; nasally administered insulin in humans, effects proportional to laureth-9 concentration)",chronic irritation [2]
laureth-9,only moderately effective,enhanced absorption,tolerated by all subjects tested,"often accompanied by nasal irritation such as stinging, congestion and rhinorrhea",–
polysorbate-80,–,–,–,–,reduces chronic irritation
